Experimental data as given in US20250382344A1, “Soluble GLP1/GIP/NPY2 Receptor Triple Agonists” (Boehringer Ingelheim International GmH, priority 2024, published 2025).
Read-outs that look alike come from different tables or passages of the source.

What was measured:
hNPY2R = biological target: T1, hNPY2R (Homo sapiens, UniProt P49146); test: hNPY2R CreLuc assay in 0.5% and 100% plasma (HEK-293 CRE-luciferase reporter cells); type: cell-based; conditions: HEK-293 reporter cells
T1 construct: expressed in transfected cells; host or cells: HEK-293 CRE-luciferase reporter cells
T1 sequence (P49146 1-381): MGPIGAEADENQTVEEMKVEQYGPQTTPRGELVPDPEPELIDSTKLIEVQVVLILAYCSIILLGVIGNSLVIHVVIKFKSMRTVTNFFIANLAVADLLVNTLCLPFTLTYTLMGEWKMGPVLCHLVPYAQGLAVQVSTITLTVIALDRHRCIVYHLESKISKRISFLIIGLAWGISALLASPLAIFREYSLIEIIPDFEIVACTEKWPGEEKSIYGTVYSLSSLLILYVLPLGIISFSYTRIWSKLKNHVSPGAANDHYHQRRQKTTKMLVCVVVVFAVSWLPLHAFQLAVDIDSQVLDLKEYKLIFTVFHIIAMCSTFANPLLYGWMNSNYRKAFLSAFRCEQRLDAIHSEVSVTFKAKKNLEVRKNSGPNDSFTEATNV
Text: CHO and HEK-293 recombinant cell lines express a luciferase reporter gene under control of the CAMP responsive element (CRE). As a second recombinant protein the GLP-1 and NPY2 receptors were expressed in the reporter gene HEK cells, and the GIP receptor was expressed in the reporter gene CHO cells, respectively. Stimulation of these recombinant cells with an agonist leads to an increase of intracellular CAMP levels. In the presence of CAMP, the transcription factor CRE binding protein (CREB) binds to the CRE and to the CREB binding protein (CBP), which leads to transcription of the luciferase reporter gene. Peptides upon serial-dilution in 100% DMSO were transferred into 384-well assay plates with 5 μl pre-dispensed assay buffer (1×HBSS, 20 mM HEPES, pH7.4 supplemented with 0.5% human plasma) using acoustic dispensing on a Labcyte ECHO. Cryo-preserved transgenic reporter gene cells were thawed in assay buffer. 20 μl (10.000 cells/well) were added to the plate with the peptides and incubated for 4 hours at 37° C. in a humidified incubator. Following incubation, assay plates are equilibrated to room temperature, followed by addition of 25 μl of Bright-Glo™ Luciferase reagent, incubation at room temperature for 10 minutes and analysis of luminescence (Envision Reader). […] EC50 values were calculated by non-linear regression using sigmoid concentration-response with variable slope.
The same assays were run in the presence of 100% plasma with no additional buffer constituents.

hGIPR = biological target: T2, hGIPR (Homo sapiens, UniProt P48546); test: hGIPR CreLuc assay in 0.5% and 100% plasma (CHO CRE-luciferase reporter cells); type: cell-based; conditions: 0.5% human plasma, read-out: hGIPR 0.5% hP
T2 construct: expressed in transfected cells; host or cells: CHO CRE-luciferase reporter cells
T2 sequence (P48546 22-466): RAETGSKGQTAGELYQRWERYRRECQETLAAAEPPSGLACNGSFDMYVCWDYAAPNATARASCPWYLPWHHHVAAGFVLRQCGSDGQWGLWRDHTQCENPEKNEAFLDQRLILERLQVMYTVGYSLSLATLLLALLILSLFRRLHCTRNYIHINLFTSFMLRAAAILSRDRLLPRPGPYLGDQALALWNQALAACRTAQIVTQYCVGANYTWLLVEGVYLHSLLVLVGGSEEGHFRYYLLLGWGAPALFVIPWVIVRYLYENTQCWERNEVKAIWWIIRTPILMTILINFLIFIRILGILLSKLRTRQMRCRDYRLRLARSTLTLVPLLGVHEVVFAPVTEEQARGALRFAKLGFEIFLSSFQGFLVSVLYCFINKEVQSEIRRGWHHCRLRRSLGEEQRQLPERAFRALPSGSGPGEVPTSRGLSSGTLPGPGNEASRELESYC

[1] = Solubility in 0.1 M phosphate buffer at pH 7; type: physicochemical; conditions: 0.1 M phosphate buffer at pH 7, 10 mg/mL final peptide concentration, shaking 2 hours at room temperature, peptides as TFA-salts; measured sample pH 6.5-7.0
[2] = 100% human plasma, read-out: hNPY2R 100% hP

EC50 (hNPY2R; [2]) [nM] | EC50 (hGIPR) [nM] | solubility at 2 h [1] [µg/mL] | EC50 (hNPY2R; 0.5% human plasma, read-out: hNPY2R 0.5% hP) [nM] | SMILES
131 | 0.6 | 4300 |  | CC[C@H](C)[C@H](NC(=O)[C@H](CC(C)C)NC(=O)[C@H](Cc1c[nH]cn1)NC(=O)[C@H](CCCNC(=N)N)NC(=O)[C@@H](NC(=O)[C@H](Cc1ccccc1)NC(=O)[C@H](C)NC(=O)C(C)(C)NC(=O)[C@H](CCC(N)=O)NC(=O)[C@H](C)NC(=O)[C@H](CCC(N)=O)NC(=O)[C@H](CCCCN)NC(=O)[C@H](CCC(=O)O)NC(=O)[C@H](CC(C)C)NC(=O)C(C)(C)NC(=O)[C@@H](NC(=O)[C@H](CO)NC(=O)[C@H](Cc1ccc(O)cc1)NC(=O)[C@H](CC(=O)O)NC(=O)[C@H](CO)NC(=O)[C@@H](NC(=O)[C@H](Cc1ccccc1)NC(=O)[C@@H](NC(=O)CNC(=O)[C@H](CCC(=O)O)NC(=O)C(C)(C)NC(=O)[C@@H](N)Cc1ccc(O)cc1)[C@@H](C)O)[C@@H](C)O)[C@@H](C)CC)C(C)C)C(=O)N[C@@H](CC(N)=O)C(=O)N[C@@H](CCCCNC(=O)CC[C@H](NC(=O)CC[C@H](NC(=O)CC[C@H](NC(=O)CC[C@H](NC(=O)CC[C@H](NC(=O)CC[C@H](NC(=O)[C@H]1CC[C@H](CNC(=O)CCCCCCCCCCCCCCCCC(=O)O)CC1)C(=O)O)C(=O)O)C(=O)O)C(=O)O)C(=O)O)C(=O)O)C(=O)NC(C)(C)C(=O)N[C@H](C(=O)N[C@@H](CCCNC(=N)N)C(=O)N[C@@H](CCC(N)=O)C(=O)N[C@@H](CCCNC(=N)N)C(=O)N[C@@H](Cc1ccc(O)cc1)C(N)=O)[C@@H](C)O [Compound 31, Y-Aib-E-G-T-F-T-S-D-Y-S-I-Aib-L-E-K-Q-A-Q-Aib-A-F-V-R-H-L-I-N-K(1,3)-Aib-T-R-Q-R-Y-NH2.C18DA-TRX-gGlu-gGlu-gGlu-gGlu-gGlu-gGlu(1,2)]
 | 0.5 | 9100 | 17.1 | CC[C@H](C)[C@H](NC(=O)[C@H](CC(C)C)NC(=O)[C@H](Cc1c[nH]cn1)NC(=O)[C@H](CCCNC(=N)N)NC(=O)[C@@H](NC(=O)[C@H](Cc1ccccc1)NC(=O)[C@H](CCC(=O)O)NC(=O)C(C)(C)NC(=O)[C@H](CCC(N)=O)NC(=O)[C@H](C)NC(=O)[C@H](CCC(N)=O)NC(=O)[C@H](CCCCN)NC(=O)[C@H](CCC(=O)O)NC(=O)[C@H](CC(C)C)NC(=O)C(C)(C)NC(=O)[C@@H](NC(=O)[C@H](CO)NC(=O)[C@H](Cc1ccc(O)cc1)NC(=O)[C@H](CC(=O)O)NC(=O)[C@H](CO)NC(=O)[C@@H](NC(=O)[C@H](Cc1ccccc1)NC(=O)[C@@H](NC(=O)CNC(=O)[C@H](CCC(=O)O)NC(=O)C(C)(C)NC(=O)[C@@H](N)Cc1ccc(O)cc1)[C@@H](C)O)[C@@H](C)O)[C@@H](C)CC)C(C)C)C(=O)N[C@@H](CC(N)=O)C(=O)N[C@@H](CCCCNC(=O)[C@@H](N)CCCCNC(=O)[C@H](CCC(=O)O)NC(=O)CC[C@H](NC(=O)CC[C@H](NC(=O)CC[C@H](NC(=O)CC[C@H](NC(=O)CC[C@H](NC(=O)CC[C@H](NC(=O)CCCCCCCCCCCCCCCCC(=O)O)C(=O)O)C(=O)O)C(=O)O)C(=O)O)C(=O)O)C(=O)O)C(=O)N[C@@H](CC(C)C)C(=O)N[C@H](C(=O)N[C@@H](CCCNC(=N)N)C(=O)N[C@@H](CCC(N)=O)C(=O)N[C@@H](CCCNC(=N)N)C(=O)N[C@@H](Cc1ccc(O)cc1)C(N)=O)[C@@H](C)O [Compound 32, Y-Aib-E-G-T-F-T-S-D-Y-S-I-Aib-L-E-K-Q-A-Q-Aib-E-F-V-R-H-L-I-N-K(1,3)-L-T-R-Q-R-Y-NH2.C18DA-gGlu-gGlu-gGlu-gGlu-gGlu-gGlu-Glu-eLys(1,2)]
141 | 0.6 | 4300 |  | CC[C@H](C)[C@H](NC(=O)[C@H](CC(C)C)NC(=O)[C@H](Cc1c[nH]cn1)NC(=O)[C@H](CCCNC(=N)N)NC(=O)[C@@H](NC(=O)[C@H](Cc1ccccc1)NC(=O)[C@H](C)NC(=O)C(C)(C)NC(=O)[C@H](CCC(N)=O)NC(=O)[C@H](C)NC(=O)[C@H](CCC(N)=O)NC(=O)[C@H](CCCCN)NC(=O)[C@H](CCC(=O)O)NC(=O)[C@H](CC(C)C)NC(=O)C(C)(C)NC(=O)[C@@H](NC(=O)[C@H](CO)NC(=O)[C@H](Cc1ccc(O)cc1)NC(=O)[C@H](CC(=O)O)NC(=O)[C@H](CO)NC(=O)[C@@H](NC(=O)[C@H](Cc1ccccc1)NC(=O)[C@@H](NC(=O)CNC(=O)[C@H](CCC(=O)O)NC(=O)C(C)(C)NC(=O)[C@@H](N)Cc1ccc(O)cc1)[C@@H](C)O)[C@@H](C)O)[C@@H](C)CC)C(C)C)C(=O)N[C@@H](CC(N)=O)C(=O)N[C@@H](CCCCNC(=O)CC[C@H](NC(=O)CC[C@H](NC(=O)CC[C@H](NC(=O)CC[C@H](NC(=O)CC[C@H](NC(=O)CC[C@H](NC(=O)CC[C@H](NC(=O)CCCCCCCCCCCCCCCCC(=O)O)C(=O)O)C(=O)O)C(=O)O)C(=O)O)C(=O)O)C(=O)O)C(=O)O)C(=O)NC(C)(C)C(=O)N[C@H](C(=O)N[C@@H](CCCNC(=N)N)C(=O)N[C@@H](CCC(N)=O)C(=O)N[C@@H](CCCNC(=N)N)C(=O)N[C@@H](Cc1ccc(O)cc1)C(N)=O)[C@@H](C)O [Compound 38, Y-Aib-E-G-T-F-T-S-D-Y-S-I-Aib-L-E-K-Q-A-Q-Aib-A-F-V-R-H-L-I-N-K(1,3)-Aib-T-R-Q-R-Y-NH2.C18DA-gGlu-gGlu-gGlu-gGlu-gGlu-gGlu-gGlu(1,2)]
119 | 0.9 | 4500 |  | CC[C@H](C)[C@H](NC(=O)[C@H](CC(C)C)NC(=O)[C@H](Cc1c[nH]cn1)NC(=O)[C@H](CCCNC(=N)N)NC(=O)[C@@H](NC(=O)[C@H](Cc1ccccc1)NC(=O)[C@H](CCC(=O)O)NC(=O)C(C)(C)NC(=O)[C@H](CCC(N)=O)NC(=O)[C@H](C)NC(=O)[C@H](CCC(N)=O)NC(=O)[C@H](CCCCN)NC(=O)[C@H](CCC(=O)O)NC(=O)[C@H](CC(C)C)NC(=O)C(C)(C)NC(=O)[C@@H](NC(=O)[C@H](CO)NC(=O)[C@H](Cc1ccc(O)cc1)NC(=O)[C@H](CC(=O)O)NC(=O)[C@H](CO)NC(=O)[C@@H](NC(=O)[C@H](Cc1ccccc1)NC(=O)[C@@H](NC(=O)CNC(=O)[C@H](CCC(=O)O)NC(=O)C(C)(C)NC(=O)[C@@H](N)Cc1ccc(O)cc1)[C@@H](C)O)[C@@H](C)O)[C@@H](C)CC)C(C)C)C(=O)N[C@@H](CC(N)=O)C(=O)N[C@@H](CCCCNC(=O)[C@@H](N)CCCCNC(=O)CC[C@H](NC(=O)CC[C@H](NC(=O)CC[C@H](NC(=O)CC[C@H](NC(=O)CC[C@H](NC(=O)CC[C@H](NC(=O)CCCCCCCCCCCCCCCCCCC(=O)O)C(=O)O)C(=O)O)C(=O)O)C(=O)O)C(=O)O)C(=O)O)C(=O)N[C@@H](CC(C)C)C(=O)N[C@H](C(=O)N[C@@H](CCCNC(=N)N)C(=O)N[C@@H](CCC(N)=O)C(=O)N[C@@H](CCCNC(=N)N)C(=O)N[C@@H](Cc1ccc(O)cc1)C(N)=O)[C@@H](C)O [Compound 39, Y-Aib-E-G-T-F-T-S-D-Y-S-I-Aib-L-E-K-Q-A-Q-Aib-E-F-V-R-H-L-I-N-K(1,3)-L-T-R-Q-R-Y-NH2.C20DA-gGlu-gGlu-gGlu-gGlu-gGlu-gGlu-eLys(1,2)]
